How the values were obtained:
NLRP3 [1] = biological target: T1, NLRP3 (Homo sapiens, UniProt Q96P20); assay: THP-1 cells pyroptosis assay; type: cell-based; parameters: Seed THP-1 cells (25,000 cells/well) containing 1.0 μg/ml LPS; host or cells: THP-1; conditions: LPS 1.0 μg/ml, nigericin 5 μM, resazurin readout, 10 μM top dose (Example 2: top dose of 30 μM)
In short: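 THP-1 cells (25,000/well) primed with 1 μg/ml LPS in serum-free RPMI, treated with compound (8-point dilution, 10 μM top unless stated; 0.1% DMSO) 3 h at 37°C, then nigericin 5 μM 1 h. Viability read by resazurin (100 μM, 1-2 h) fluorescence; IC50 from 4-parameter fit.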

NLRP3 [2] = biological target: T1, NLRP3; assay: Human whole blood IL1β release assay; type: cell-based; conditions: LPS 1 μg/ml, nigericin 10 μM, IL-1β AlphaLisa, 10 μM top dose (Example 2: top dose of 30 μM), read-out: HWB IC50
Method: For systemic delivery, the ability to inhibit NLRP3 when the compounds are present within the bloodstream is of great importance. For this reason, the NLRP3 inhibitory activity of a number of compounds in human whole blood was investigated in accordance with the following protocol.
Human whole blood in sodium-heparin or lithium-heparin tubes was obtained from healthy donors from a volunteer donor panel. • 1. Plate out 80 μl of whole blood containing 1 μg/ml of LPS in 96-well, clear bottom cell culture plate (Corning #3585) • 2. Add 10 μl compound (8 points half-log dilution with 10 μM top dose, unless stated otherwise) or vehicle (DMSO 0.1% FAC) to the appropriate wells • 3. Incubate for 3 hrs at 37° C., 5% CO2 • 4. Add 10 μl nigericin (Sigma #N7143) (10 μM FAC) to all wells • 5. Incubate for 1 hr at 37° C., 5% CO2 • 6. At the end of the incubation period, spin plates at 300×g for 5 mins to pellet cells and remove 20 μl of supernatant and add to 96-well v-bottom plates for IL-1β analysis (note: these plates containing the supernatants can be stored at −80° C. to be analysed at a later date) • 7. IL-1β was measured according to the manufacturer protocol (Perkin Elmer-AlphaLisa IL-1 Kit AL220F-5000) • 8. IC50 data is fitted to a non-linear regression equation (log inhibitor vs response-variable slope 4-parameters)

T1 sequence (Q96P20 whole entry): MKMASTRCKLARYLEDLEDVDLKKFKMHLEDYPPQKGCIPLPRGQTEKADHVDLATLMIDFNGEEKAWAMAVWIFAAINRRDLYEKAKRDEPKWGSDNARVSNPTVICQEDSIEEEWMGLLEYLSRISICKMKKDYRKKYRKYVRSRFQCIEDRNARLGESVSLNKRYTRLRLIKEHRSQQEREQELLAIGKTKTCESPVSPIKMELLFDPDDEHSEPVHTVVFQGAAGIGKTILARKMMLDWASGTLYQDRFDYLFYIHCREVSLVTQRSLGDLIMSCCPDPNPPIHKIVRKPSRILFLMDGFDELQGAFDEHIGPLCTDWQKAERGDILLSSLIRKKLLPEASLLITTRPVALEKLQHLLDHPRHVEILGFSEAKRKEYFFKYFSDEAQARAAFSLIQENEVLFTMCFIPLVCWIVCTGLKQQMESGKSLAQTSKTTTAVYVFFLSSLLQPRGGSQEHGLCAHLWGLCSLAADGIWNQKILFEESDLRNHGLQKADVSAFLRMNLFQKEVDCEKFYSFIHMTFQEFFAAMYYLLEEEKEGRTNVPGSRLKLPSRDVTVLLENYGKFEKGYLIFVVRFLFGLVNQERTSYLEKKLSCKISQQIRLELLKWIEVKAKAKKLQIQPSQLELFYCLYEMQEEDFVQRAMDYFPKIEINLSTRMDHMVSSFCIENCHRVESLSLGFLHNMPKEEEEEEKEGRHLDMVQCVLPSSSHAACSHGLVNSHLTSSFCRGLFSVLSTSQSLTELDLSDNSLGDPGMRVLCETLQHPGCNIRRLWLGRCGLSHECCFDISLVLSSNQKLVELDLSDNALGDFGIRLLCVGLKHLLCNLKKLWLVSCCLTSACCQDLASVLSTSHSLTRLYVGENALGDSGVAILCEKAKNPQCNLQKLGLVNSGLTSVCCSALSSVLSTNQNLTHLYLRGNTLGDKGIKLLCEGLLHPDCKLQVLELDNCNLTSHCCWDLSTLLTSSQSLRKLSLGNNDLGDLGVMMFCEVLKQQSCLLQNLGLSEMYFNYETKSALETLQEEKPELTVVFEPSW

| Compound | IC50 (NLRP3 [1]) | IC50 (NLRP3 [2]) |
| --- | --- | --- |
| O=S(=O)(NCC1CCCCN1)c1nnc(Nc2c3c(cc4c2CCC4)CCC3)[nH]1 (centres unmarked) [Example 132, 5-((1,2,3,5,6,7-hexahydro-s-indacen-4-yl)amino)-N-(piperidin-2-ylmethyl)-4H-1,2,4-triazole-3-sulfonamide] | ≤ 500 nM | ≤ 10000 nM |
| O=S(=O)(c1nnc(Nc2c3c(cc4c2CCC4)CCC3)[nH]1)N1CC(N2CCCCC2)C1 [Example 133, N-(1,2,3,5,6,7-hexahydro-s-indacen-4-yl)-5-((3-(piperidin-1-yl)azetidin-1-yl)sulfonyl)-4H-1,2,4-triazol-3-amine] | ≤ 500 nM | ≤ 10000 nM |
| O=S(=O)(c1nnc(Nc2c3c(cc4c2CCC4)CCC3)[nH]1)N1CC(N2CCCC2)C1 [Example 136, N-(1,2,3,5,6,7-hexahydro-s-indacen-4-yl)-5-((3-(pyrrolidin-1-yl)azetidin-1-yl)sulfonyl)-4H-1,2,4-triazol-3-amine] | ≤ 500 nM | ≤ 5000 nM |
| CN1CC2(C1)CN(S(=O)(=O)c1nnc(Nc3c4c(cc5c3CCC5)CCC4)[nH]1)C2 [Example 137, N-(1,2,3,5,6,7-hexahydro-s-indacen-4-yl)-5-((6-methyl-2,6-diazaspiro[3.3]heptan-2-yl)sulfonyl)-4H-1,2,4-triazol-3-amine] | ≤ 500 nM | ≤ 500 nM |
| CN1CC2CN(S(=O)(=O)c3nnc(Nc4c5c(cc6c4CCC6)CCC5)[nH]3)CC2C1 (centres unmarked) [Example 138, N-(1,2,3,5,6,7-hexahydro-s-indacen-4-yl)-5-((5-methylhexahydropyrrolo[3,4-c]pyrrol-2 (1H)-yl)sulfonyl)-4H-1,2,4-triazol-3-amine] | ≤ 5000 nM | ≤ 5000 nM |
| CN(C)C(=O)C1CCN(S(=O)(=O)c2nnc(Nc3c4c(cc5c3CCC5)CCC4)[nH]2)C1 (centres unmarked) [Example 139, 1-((5-((1,2,3,5,6,7-hexahydro-s-indacen-4-yl)amino)-4H-1,2,4-triazol-3-yl)sulfonyl)-N,N-dimethylpyrrolidine-3-carboxamide] | ≤ 1000 nM | ≤ 10000 nM |
| CN1CCCCC1CNS(=O)(=O)c1nnc(Nc2c3c(cc4c2CCC4)CCC3)[nH]1 (centres unmarked) [Example 141, 5-((1,2,3,5,6,7-hexahydro-s-indacen-4-yl)amino)-N-((1-methylpiperidin-2-yl)methyl)-4H-1,2,4-triazole-3-sulfonamide] | ≤ 5000 nM | ≤ 10000 nM |
| CCN(CC)C[C@@H]1CCN(S(=O)(=O)c2nnc(Nc3c4c(cc5c3CCC5)CCC4)[nH]2)C1 [Example 143, (S)-5-((3-((diethylamino)methyl)pyrrolidin-1-yl)sulfonyl)-N-(1,2,3,5,6,7-hexahydro-s-indacen-4-yl)-4H-1,2,4-triazol-3-amine] | ≤ 500 nM | ≤ 500 nM |
| CCN(CC)C[C@H]1CCN(S(=O)(=O)c2nnc(Nc3c4c(cc5c3CCC5)CCC4)[nH]2)C1 [Example 144, (R)-5-((3-((diethylamino)methyl)pyrrolidin-1-yl)sulfonyl)-N-(1,2,3,5,6,7-hexahydro-s-indacen-4-yl)-4H-1,2,4-triazol-3-amine] | ≤ 500 nM | ≤ 500 nM |
| O=S(=O)(c1nnc(Nc2c3c(cc4c2CCC4)CCC3)[nH]1)N1CC2(CCOCC2)C1 [Example 145, 5-(7-oxa-2-azaspiro[35]nonan-2-ylsulfonyl)-N-(1,2,3,5,6,7-hexahydro-s-indacen-4-yl)-4H-1,2,4-triazol-3-amine] | ≤ 1000 nM | ≤ 5000 nM |
| O=S(=O)(c1nnc(Nc2c3c(cc4c2CCC4)CCC3)[nH]1)N1CC2(CCOC2)C1 [Example 146, 5-(6-oxa-2-azaspiro[3.4]octan-2-ylsulfonyl)-N-(1,2,3,5,6,7-hexahydro-s-indacen-4-yl)-4H-1,2,4-triazol-3-amine] | ≤ 5000 nM | ≤ 10000 nM |
| CN(C)C[C@@H]1CCN(S(=O)(=O)c2nnc(Nc3c4c(cc5c3CCC5)CCC4)[nH]2)C1 [Example 147, (S)-5-((3-((dimethylamino)methyl)pyrrolidin-1-yl)sulfonyl)-N-(1,2,3,5,6,7-hexahydro-s-indacen-4-yl)-4H-1,2,4-triazol-3-amine] | ≤ 500 nM | ≤ 500 nM |
| CN(C)C[C@H]1CCN(S(=O)(=O)c2nnc(Nc3c4c(cc5c3CCC5)CCC4)[nH]2)C1 [Example 148, (R)-5-((3-((dimethylamino)methyl)pyrrolidin-1-yl)sulfonyl)-N-(1,2,3,5,6,7-hexahydro-s-indacen-4-yl)-4H-1,2,4-triazol-3-amine] | ≤ 500 nM | ≤ 500 nM |
| CN(C)CC1CN(S(=O)(=O)c2nnc(Nc3c4c(cc5c3CCC5)CCC4)[nH]2)CCO1 (centres unmarked) [Example 149, 5-((2-((dimethylamino)methyl)morpholino)sulfonyl)-N-(1,2,3,5,6,7-hexahydro-s-indacen-4-yl)-4H-1,2,4-triazol-3-amine] | ≤ 1000 nM | ≤ 5000 nM |
| O=S(=O)(c1nnc(Nc2c3c(cc4c2CCC4)CCC3)[nH]1)N1CC2(CNC2)C1 [Example 150, 5-(2,6-Diazaspiro[33]heptan-2-ylsulfonyl)-N-(1,2,3,5,6,7-hexahydro-s-indacen-4-yl)-4H-1,2,4-triazol-3-amine] | ≤ 5000 nM | ≤ 5000 nM |
| CC(C)(O)C1CN(S(=O)(=O)c2nnc(Nc3c4c(cc5c3CCC5)CCC4)[nH]2)C1 [Example 151, 2-(1-((5-((1,2,3,5,6,7-hexahydro-s-indacen-4-yl)amino)-4H-1,2,4-triazol-3-yl)sulfonyl)azetidin-3-yl)propan-2-ol] | ≤ 5000 nM | ≤ 5000 nM |
| CC(C)c1cc(F)cc(-c2ccncc2)c1Oc1nnc(S(=O)(=O)N2CCC(CN(C)C)C2)[nH]1 (centres unmarked) [Example 152, 1-(1-((5-(4-fluoro-2-isopropyl-6-(pyridin-4-yl)phenoxy)-4H-1,2,4-triazol-3-yl)sulfonyl)pyrrolidin-3-yl)-N,N-dimethylmethanamine] | ≤ 5000 nM | ≤ 5000 nM |
| O=S(=O)(c1nnc(Nc2c3c(cc4c2CCC4)CCC3)[nH]1)c1ccccc1F [Example 179, 5-((2-fluorophenyl)sulfonyl)-N-(1,2,3,5,6,7-hexahydro-s-indacen-4-yl)-4H-1,2,4-triazol-3-amine] | ≤ 1000 nM | ≤ 10000 nM |
| COc1cc(-c2cc(C#N)c3c(c2Nc2nnc(S(=O)(=O)c4ccccc4)[nH]2)CCC3)ccn1 [Example 192, 6-(2-methoxypyridin-4-yl)-7-((5-(phenylsulfonyl)-4H-1,2,4-triazol-3-yl)amino)-2,3-dihydro-1H-indene-4-carbonitrile] | ≤ 1000 nM | ≤ 5000 nM |
| [2H]C([2H])([2H])Oc1cc(-c2ccc3c(c2Nc2nnc(S(=O)(=O)N4CC5(CCN(C)C5)C4)[nH]2)CCO3)ccn1 [Example 195, N-(5-(2-(methoxy-d)pyridin-4-yl)-2,3-dihydrobenzofuran-4-yl)-5-((6-methyl-2,6-diazaspiro[3-4]octan-2-yl)sulfonyl)-4H-1,2,4-triazol-3-amine] | ≤ 500 nM | ≤ 500 nM |
| [2H]C([2H])([2H])Oc1cc(-c2ccc3c(c2Nc2nnc(S(=O)(=O)N4CC5(CCN(C)C5)C4)[nH]2)CCC3)ccn1 [Example 196, N-(5-(2-(methoxy-d)pyridin-4-yl)-2,3-dihydro-1H-inden-4-yl)-5-((6-methyl-2,6-diazaspiro[3.4]octan-2-yl)sulfonyl)-4H-1,2,4-triazol-3-amine] | ≤ 500 nM | ≤ 500 nM |
| CC(C)c1cnn(-c2ccncc2)c1Nc1nnc(S(=O)(=O)N2CCC(N(C)C)CC2)[nH]1 [Example 197, 1-((5-((4-isopropyl-1-(pyridin-4-yl)-1H-pyrazol-5-yl)amino)-4H-1,2,4-triazol-3-yl)sulfonyl)-N,N-dimethylpiperidin-4-amine] | ≤ 500 nM | ≤ 500 nM |
| CN(C)C1CCN(S(=O)(=O)c2nnc(Nc3c(-c4ccnc(C5CC5)c4)ccc4c3CCC4)[nH]2)CC1 [Example 199, 1-((5-((5-(2-cyclopropylpyridin-4-yl)-2,3-dihydro-1H-inden-4-yl)amino)-4H-1,2,4-triazol-3-yl)sulfonyl)-N,N-dimethylpiperidin-4-amine] | ≤ 500 nM | ≤ 5000 nM |
| CN1CCC12CCN(S(=O)(=O)c1nnc(Nc3c(-c4ccnc(OC(F)F)c4)ccc4c3CCC4)[nH]1)CC2 [Example 200, N-(5-(2-(difluoromethoxy)pyridin-4-yl)-2,3-dihydro-1H-inden-4-yl)-5-((1-methyl-1,7-diazaspiro[3.5]nonan-7-yl)sulfonyl)-4H-1,2,4-triazol-3-amine] | ≤ 500 nM | ≤ 5000 nM |
| CN1CCCC12CCN(S(=O)(=O)c1nnc(Nc3c(-c4ccnc(OC(F)F)c4)ccc4c3CCC4)[nH]1)CC2 [Example 201, N-(5-(2-(difluoromethoxy)pyridin-4-yl)-2,3-dihydro-1H-inden-4-yl)-5-((1-methyl-1,8-diazaspiro[4.5]decan-8-yl)sulfonyl)-4H-1,2,4-triazol-3-amine] | ≤ 500 nM | ≤ 500 nM |

Source: patent publication US20210261512A1, “NOVEL COMPOUNDS” (INFLAZOME LIMITED, priority 2018, published 2021)
